Measured values as given in ChEMBL document CHEMBL5325415, “Falcipains: Biochemistry, target validation and structure-activity relationship studies of inhibitors as antimalarials” (Eur J Med Chem, 2023).
Values after ≈ are worked out from the molar mass of the structure shown.

Tests used:
Falcipain 2 [1] = biological target: T1, Falcipain 2 (Plasmodium falciparum, UniProt Q9N6S8); experiment: Inhibition of Plasmodium falciparum FP-2 using Z-Leu-Arg-AMC as substrate pretreated with enzyme for 30 mins followed by substrate addition and measured for 30 mins by spectrofluorometry
T1 sequence (Q9N6S8 whole entry): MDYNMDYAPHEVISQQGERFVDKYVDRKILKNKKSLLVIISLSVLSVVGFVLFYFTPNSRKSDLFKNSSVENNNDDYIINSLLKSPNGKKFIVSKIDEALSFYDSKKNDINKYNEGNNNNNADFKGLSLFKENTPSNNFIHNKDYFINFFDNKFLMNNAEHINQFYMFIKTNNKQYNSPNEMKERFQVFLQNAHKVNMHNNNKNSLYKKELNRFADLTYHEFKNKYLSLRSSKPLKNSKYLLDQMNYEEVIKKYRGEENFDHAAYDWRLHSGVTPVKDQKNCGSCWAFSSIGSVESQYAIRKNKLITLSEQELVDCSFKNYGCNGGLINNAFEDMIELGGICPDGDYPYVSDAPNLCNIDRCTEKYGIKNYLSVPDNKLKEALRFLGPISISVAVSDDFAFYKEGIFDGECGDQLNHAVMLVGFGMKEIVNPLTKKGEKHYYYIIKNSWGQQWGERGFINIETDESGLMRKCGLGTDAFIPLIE

Plasmodium falciparum [2] = experiment: Antimalarial activity against Chloroquine-resistant Plasmodium falciparum RKL9 infected in human erythrocytes assessed as inhibition of parasite growth incubated for 72 hrs by Giemsa staining based analysis; type: functional, organism-based; conditions: RKL9, Erythrocyte
Plasmodium falciparum [3] = experiment: Antimalarial activity against Chloroquine-sensitive Plasmodium falciparum 3D7 infected in human erythrocytes assessed as inhibition of parasite growth incubated for 72 hrs by Giemsa staining based analysis; type: functional, organism-based; conditions: 3D7, Erythrocyte
[4] = Inhibition of Plasmodium vinckei extracts VP-2 using Z-phe-Arg-AMC as substrate pretreated with enzyme for 30 mins followed by substrate addition and measured for 30 mins by spectrofluorometry
Falcipain 2 [5] = biological target: T1, Falcipain 2; experiment: Inhibition of Plasmodium falciparum Itg2 trophozite extracts FP-2 using Z-phe-Arg-AMC as substrate pretreated with enzyme for 30 mins followed by substrate addition and measured for 30 mins by spectrofluorometry
[6] = biological target: T2, Falcipain 2 (Plasmodium falciparum) (UniProt Q9N6S8); experiment: Inhibition of Plasmodium falciparum FP-2 using Z-Leu-Arg-AMC as substrate at 10 uM pretreated with enzyme for 30 mins followed by substrate addition and measured for 30 mins by spectrofluorometry; conditions: time 60.0 min
T2 sequence (whole entry): T1 sequence (Q9N6S8 whole entry)

Plasmodium falciparum [7] = experiment: Antiplasmodial activity against Plasmodium falciparum 3D7 infected in human erythrocytes assessed as growth inhibition measured after 52 hrs by SYBR green dye based assay; type: functional, organism-based; conditions: 3D7, Erythrocyte
Falcipain 2 [8] = biological target: T1, Falcipain 2; experiment: Inhibition of Plasmodium falciparum FP2 using ZFR-AMC as substrate preincubated with enzyme for 10 mins followed by substrate addition and measured for 30 mins by fluorimetric analysis
Plasmodium falciparum [9] = experiment: Antiplasmodial activity against Plasmodium falciparum Dd2; type: functional, organism-based
Plasmodium falciparum [10] = experiment: Antiplasmodial activity against Plasmodium falciparum ItG; type: functional, organism-based
Plasmodium falciparum [11] = experiment: Antiplasmodial activity against Plasmodium falciparum W2; type: functional, organism-based
Plasmodium falciparum [12] = experiment: Antiplasmodial activity against Plasmodium falciparum D6; type: functional, organism-based
Plasmodium falciparum [13] = experiment: Antiplasmodial activity against Plasmodium falciparum HB3; type: functional, organism-based
Plasmodium falciparum [14] = experiment: Antimalarial activity against chloroquine-sensitive Plasmodium falciparum 3D7 infected in RBC measured after 24 to 30 hrs by microscopic analysis; type: functional, organism-based; conditions: 3D7, Erythrocyte
Plasmodium falciparum [15] = experiment: Antimalarial activity against chloroquine-resistant Plasmodium falciparum RKL9 infected in RBC measured after 24 to 30 hrs by microscopic analysis; type: functional, organism-based; conditions: RKL9, Erythrocyte
Falcipain 2 [16] = biological target: T1, Falcipain 2; experiment: Inhibition of Plasmodium falciparum FP-2 using Cbz-Phe-Arg-AMC as substrate pretreated with enzyme for 10 mins followed by substrate addition and measured after 10 mins by fluorescence based analysis

CCOc1cccc(NC(=S)N/N=C/c2ccc(O[C@H]3O[C@@H]4O[C@@]5(C)CC[C@H]6[C@H](C)CC[C@@H]([C@H]3C)[C@@]46OO5)cc2)c1
IC50 (Falcipain 2 [1]): 520 nM

COc1ccc(/C=C(\C#N)c2nc3ccccc3[nH]2)cc1O
IC50 (Plasmodium falciparum [2]): 5.46 µM
IC50 (Plasmodium falciparum [3]): 1.61 µM

O=C(N[C@H](/C=C/S(=O)(=O)c1ccccc1)CCc1ccccc1)[C@H](Cc1ccccc1)NC(=O)N1CCOCC1
IC50 [4]: 100 nM
IC50 (Falcipain 2 [5]): 0.08 µM

COc1ccc(-c2nccc3ccc(Cc4ccccc4)cc23)cc1
IC50 (Falcipain 2 [5]): 10 µM

Oc1ccc(-c2nccc3ccc(Cc4ccccc4)cc23)cc1
IC50 (Falcipain 2 [5]): 8 µM

C=CCn1c(SCC(=O)Nc2sc3c(c2C(N)=O)CCC3)nc2sc3c(c2c1=O)CCCC3
IC50 (Falcipain 2 [1]): 5770 nM
inhibition [6]: 82.2%

O=[N+]([O-])c1ccc(-n2cc(COc3ccnc4cc(Cl)ccc34)nn2)cc1
EC50 (Plasmodium falciparum [7]): 49.9 µM
IC50 (Falcipain 2 [8]): 16.2 µM

COC(=O)c1ccc(CNC(=O)[C@@H](Cc2c[nH]c3ccccc23)NC(=O)Oc2ccccc2)cc1
IC50 (Falcipain 2 [1]): 13300 nM
inhibition [6]: 32.9%

C=CCn1c(SCC(=O)Nc2sc3c(c2C(N)=O)CCC3)nc2scc(-c3cccc([N+](=O)[O-])c3)c2c1=O
IC50 (Falcipain 2 [1]): 11800 nM
inhibition [6]: 53%

O=C(c1cc(-c2ccccc2)nc2ccccc12)N1CCN(S(=O)(=O)c2ccc(Cl)cc2Cl)CC1
EC50 (Plasmodium falciparum [7]): 20 µM
IC50 (Falcipain 2 [8]): 4.2 µM

CC(C)C[C@H](NC(=O)N1CCOCC1)C(=O)N[C@H](/C=C/S(=O)(=O)c1ccccc1)CCc1ccccc1
IC50 [4]: 200 nM
IC50 (Plasmodium falciparum [9]): 0.66 nM
IC50 (Plasmodium falciparum [10]): 1.03 nM
IC50 (Plasmodium falciparum [11]): 1.2 nM
IC50 (Plasmodium falciparum [12]): 1.51 nM
IC50 (Plasmodium falciparum [13]): 1.6 nM

COc1ccc(-c2cc(C(=O)N3CCN(S(=O)(=O)c4ccc(NC(C)=O)cc4)CC3)c3ccccc3n2)cc1
EC50 (Plasmodium falciparum [7]): 0.81 µM
IC50 (Falcipain 2 [8]): 2.14 µM

N#C/C(=C\c1ccc([N+](=O)[O-])cc1)c1nc2ccccc2[nH]1
IC50 (Plasmodium falciparum [3]): 68.9 µM

N#C/C(=C\c1cccc([N+](=O)[O-])c1)c1nc2ccccc2[nH]1
IC50 (Plasmodium falciparum [3]): 64.8 µM

Cc1ccc(NC(=O)N/N=C/c2ccc(O[C@H]3O[C@@H]4O[C@@]5(C)CC[C@H]6[C@H](C)CC[C@@H]([C@H]3C)[C@@]46OO5)cc2)c(C)c1
IC50 (Falcipain 2 [1]): 1030 nM

Cc1ccc(-c2nn(-c3ccccc3)cc2/C=C/c2nnc(-c3ccc([N+](=O)[O-])cc3)o2)cc1
IC50 (Plasmodium falciparum [14]): 0.486 µg/mL (≈ 1.08 µM)
IC50 (Plasmodium falciparum [15]): 1.57 µg/mL (≈ 3.5 µM)
IC50 (Falcipain 2 [16]): 16 µM

COc1cc2ccnc(-c3ccc(OCc4ccccc4)cc3)c2cc1OC
IC50 (Falcipain 2 [5]): 3 µM

Cc1cc(C)cc(NC(=O)N/N=C/c2ccc(C(=O)O[C@@H]3O[C@@H]4O[C@@]5(C)CC[C@H]6[C@H](C)CC[C@@H]([C@H]3C)[C@@]46OO5)cc2)c1
IC50 (Falcipain 2 [1]): 570 nM

Cc1ccc(NC(=S)N/N=C/c2ccc(O[C@H]3O[C@@H]4O[C@@]5(C)CC[C@H]6[C@H](C)CC[C@@H]([C@H]3C)[C@@]46OO5)cc2)c(C)c1
IC50 (Falcipain 2 [1]): 1350 nM

Cc1ccc(-c2nn(-c3ccccc3)cc2/C=C/c2nnc(-c3ccc(Cl)cc3)o2)cc1
IC50 (Plasmodium falciparum [14]): 0.486 µg/mL (≈ 1.11 µM)
IC50 (Plasmodium falciparum [15]): 1.57 µg/mL (≈ 3.58 µM)
IC50 (Falcipain 2 [16]): 20 µM

Fc1ccc(-n2cc(COc3ccnc4cc(Cl)ccc34)nn2)c(F)c1
EC50 (Plasmodium falciparum [7]): 159 µM
IC50 (Falcipain 2 [8]): 25.4 µM

Fc1ccc(-n2cc(COc3ccnc4cc(Cl)ccc34)nn2)cc1Cl
EC50 (Plasmodium falciparum [7]): 406 µM
IC50 (Falcipain 2 [8]): 45.1 µM

C[C@H]1[C@H](OC(=O)c2ccc(/C=N/NC(=O)Nc3ccccc3F)cc2)O[C@@H]2O[C@@]3(C)CC[C@H]4[C@H](C)CC[C@@H]1[C@@]24OO3
IC50 (Falcipain 2 [1]): 470 nM

C[C@H]1[C@H](OC(=O)c2ccc(/C=N/NC(=O)Nc3ccc(F)cc3)cc2)O[C@@H]2O[C@@]3(C)CC[C@H]4[C@H](C)CC[C@@H]1[C@@]24OO3
IC50 (Falcipain 2 [1]): 650 nM

COc1ccc(-n2cc(COc3ccnc4cc(Cl)ccc34)nn2)cc1
EC50 (Plasmodium falciparum [7]): 51.7 µM
IC50 (Falcipain 2 [8]): 25.4 µM

N#C/C(=C\c1ccc(O)cc1)c1nc2ccccc2[nH]1
IC50 (Plasmodium falciparum [3]): 47.6 µM

C=CCn1c(SCC(=O)Nc2sc3c(c2C(N)=O)CCC3)nc2scc(-c3ccc(Cl)cc3)c2c1=O
IC50 (Falcipain 2 [1]): 2950 nM
inhibition [6]: 85.7%

Cc1ccc(-c2nn(-c3ccccc3)cc2/C=C/c2nnc(-c3ccc(Cl)cc3Cl)o2)cc1
IC50 (Plasmodium falciparum [14]): 0.486 µg/mL (≈ 1.03 µM)
IC50 (Plasmodium falciparum [15]): 0.902 µg/mL (≈ 1.91 µM)
IC50 (Falcipain 2 [16]): 110 µM

CCOc1ccc(NC(=O)N/N=C/c2ccc(C(=O)O[C@@H]3O[C@@H]4O[C@@]5(C)CC[C@H]6[C@H](C)CC[C@@H]([C@H]3C)[C@@]46OO5)cc2)cc1
IC50 (Falcipain 2 [1]): 290 nM

CC(=O)Nc1ccc(S(=O)(=O)N2CCN(C(=O)c3cc(-c4ccc(OC(F)(F)F)cc4)nc4ccccc34)CC2)cc1
EC50 (Plasmodium falciparum [7]): 1.43 µM
IC50 (Falcipain 2 [8]): 2.64 µM

N#C/C(=C\c1cccc(Cl)c1)c1nc2ccccc2[nH]1
IC50 (Plasmodium falciparum [3]): 24.8 µM

Cc1ccc(-n2cc(COc3ccnc4cc(Cl)ccc34)nn2)cc1
EC50 (Plasmodium falciparum [7]): 49.5 µM
IC50 (Falcipain 2 [8]): 26.6 µM

NC(=O)c1c(NC(=O)CSc2nc3scc(-c4ccccc4)c3c(=O)n2C2CCCCC2)sc2c1CCC2
IC50 (Falcipain 2 [1]): 1460 nM
inhibition [6]: 92.7%

C=CCn1c(SCC(=O)Nc2sc3c(c2C(N)=O)CCC3)nc2scc(-c3ccccc3)c2c1=O
IC50 (Falcipain 2 [1]): 2810 nM
inhibition [6]: 88.7%

O=C(Cc1ccccc1)N[C@H](Cc1c[nH]c2ccccc12)C(=O)NCc1ccccc1
IC50 (Falcipain 2 [1]): 39400 nM
inhibition [6]: 25.7%

O=C(c1cc(-c2ccccc2)nc2ccccc12)N1CCN(c2cc(=O)[nH]c3ccccc23)CC1
EC50 (Plasmodium falciparum [7]): 20.2 µM
IC50 (Falcipain 2 [8]): 13 µM

C[C@H]1[C@@H](Oc2ccc(/C=N/NC(=S)Nc3ccccc3F)cc2)O[C@@H]2O[C@@]3(C)CC[C@H]4[C@H](C)CC[C@@H]1[C@@]24OO3
IC50 (Falcipain 2 [1]): 2510 nM

Fc1ccc(-c2nn(-c3ccccc3)cc2/C=C/c2nnc(-c3c[nH]c4ccccc34)o2)cc1
IC50 (Plasmodium falciparum [15]): 1.37 µg/mL (≈ 3.07 µM)

O=C(N[C@H](Cc1c[nH]c2ccccc12)C(=O)NCc1ccccc1)Oc1ccccc1
IC50 (Falcipain 2 [1]): 29700 nM
inhibition [6]: 29.4%

C(=C\c1cn(-c2ccccc2)nc1-c1ccccc1)/c1nnc(-c2ccco2)o1
IC50 (Plasmodium falciparum [14]): 0.248 µg/mL (≈ 0.652 µM)
IC50 (Plasmodium falciparum [15]): 0.863 µg/mL (≈ 2.27 µM)
IC50 (Falcipain 2 [16]): 14 µM

O=C(N[C@H](Cc1c[nH]c2ccccc12)C(=O)NCc1ccc([N+](=O)[O-])cc1)Oc1ccccc1
IC50 (Falcipain 2 [1]): 10000 nM
inhibition [6]: 49.5%

C(=C\c1cn(-c2ccccc2)nc1-c1ccccc1)/c1nnc(-c2c[nH]c3ccccc23)o1
IC50 (Plasmodium falciparum [14]): 0.245 µg/mL (≈ 0.57 µM)
IC50 (Plasmodium falciparum [15]): 0.724 µg/mL (≈ 1.69 µM)
IC50 (Falcipain 2 [16]): 7 µM

N#C/C(=C\c1cccc(F)c1)c1nc2ccccc2[nH]1
IC50 (Plasmodium falciparum [2]): 53.3 µM
IC50 (Plasmodium falciparum [3]): 22.2 µM

CC(=O)Nc1ccc(S(=O)(=O)N2CCN(C(=O)c3cc(Cl)nc4ccccc34)CC2)cc1
EC50 (Plasmodium falciparum [7]): 1.95 µM
IC50 (Falcipain 2 [8]): 7.37 µM

Fc1ccccc1-n1cc(COc2ccnc3cc(Cl)ccc23)nn1
EC50 (Plasmodium falciparum [7]): 66.6 µM
IC50 (Falcipain 2 [8]): 107 µM

Fc1ccc(-n2cc(COc3ccnc4cc(Cl)ccc34)nn2)cc1F
EC50 (Plasmodium falciparum [7]): 21.9 µM
IC50 (Falcipain 2 [8]): 25.6 µM

O=C(c1cc(Cl)nc2ccccc12)N1CCN(c2ccnc3cc(Cl)ccc23)CC1
EC50 (Plasmodium falciparum [7]): 1.05 µM
IC50 (Falcipain 2 [8]): 4.78 µM

N#C/C(=C\c1cccc(Br)c1)c1nc2ccccc2[nH]1
IC50 (Plasmodium falciparum [2]): 43.4 µM
IC50 (Plasmodium falciparum [3]): 14.4 µM
